# Source: article PMC9138389, “The Tarantula Toxin ω-Avsp1a Specifically Inhibits Human CaV3.1 and CaV3.3 via the Extracellular S3-S4 Loop of the Domain 1 Voltage-Sensor” (Biomedicines, 2022)
# Where a SMILES comes first, the peptide text is derived from it. Bridges are numbered along the chain shown (N, C = ends).
# Experiments:
# CaV3 = conditions: cited from earlier work
# Text: (§1) It is well documented that the three CaV3 subtypes participate differentially in a variety of physiological and pathological conditions. Selective pharmacological inhibition is therefore important for dissecting the pathophysiological functions of CaV3 channel subtypes and for the development of therapeutically useful subtype-selective inhibitors.
# patients = conditions: used clinically as anti-epileptic drugs; cited from earlier work
# Text: as §1
# CaV3.1 = molecular target: T1, CaV3.1 (Homo sapiens, UniProt O43497); assay: Whole-cell voltage-clamp of CaV3.1 expressed in HEK-293 cells; assay type: cell-based
# T1 construct: expressed in transfected cells; host or cells: HEK-293
# T1 sequence (O43497 whole entry): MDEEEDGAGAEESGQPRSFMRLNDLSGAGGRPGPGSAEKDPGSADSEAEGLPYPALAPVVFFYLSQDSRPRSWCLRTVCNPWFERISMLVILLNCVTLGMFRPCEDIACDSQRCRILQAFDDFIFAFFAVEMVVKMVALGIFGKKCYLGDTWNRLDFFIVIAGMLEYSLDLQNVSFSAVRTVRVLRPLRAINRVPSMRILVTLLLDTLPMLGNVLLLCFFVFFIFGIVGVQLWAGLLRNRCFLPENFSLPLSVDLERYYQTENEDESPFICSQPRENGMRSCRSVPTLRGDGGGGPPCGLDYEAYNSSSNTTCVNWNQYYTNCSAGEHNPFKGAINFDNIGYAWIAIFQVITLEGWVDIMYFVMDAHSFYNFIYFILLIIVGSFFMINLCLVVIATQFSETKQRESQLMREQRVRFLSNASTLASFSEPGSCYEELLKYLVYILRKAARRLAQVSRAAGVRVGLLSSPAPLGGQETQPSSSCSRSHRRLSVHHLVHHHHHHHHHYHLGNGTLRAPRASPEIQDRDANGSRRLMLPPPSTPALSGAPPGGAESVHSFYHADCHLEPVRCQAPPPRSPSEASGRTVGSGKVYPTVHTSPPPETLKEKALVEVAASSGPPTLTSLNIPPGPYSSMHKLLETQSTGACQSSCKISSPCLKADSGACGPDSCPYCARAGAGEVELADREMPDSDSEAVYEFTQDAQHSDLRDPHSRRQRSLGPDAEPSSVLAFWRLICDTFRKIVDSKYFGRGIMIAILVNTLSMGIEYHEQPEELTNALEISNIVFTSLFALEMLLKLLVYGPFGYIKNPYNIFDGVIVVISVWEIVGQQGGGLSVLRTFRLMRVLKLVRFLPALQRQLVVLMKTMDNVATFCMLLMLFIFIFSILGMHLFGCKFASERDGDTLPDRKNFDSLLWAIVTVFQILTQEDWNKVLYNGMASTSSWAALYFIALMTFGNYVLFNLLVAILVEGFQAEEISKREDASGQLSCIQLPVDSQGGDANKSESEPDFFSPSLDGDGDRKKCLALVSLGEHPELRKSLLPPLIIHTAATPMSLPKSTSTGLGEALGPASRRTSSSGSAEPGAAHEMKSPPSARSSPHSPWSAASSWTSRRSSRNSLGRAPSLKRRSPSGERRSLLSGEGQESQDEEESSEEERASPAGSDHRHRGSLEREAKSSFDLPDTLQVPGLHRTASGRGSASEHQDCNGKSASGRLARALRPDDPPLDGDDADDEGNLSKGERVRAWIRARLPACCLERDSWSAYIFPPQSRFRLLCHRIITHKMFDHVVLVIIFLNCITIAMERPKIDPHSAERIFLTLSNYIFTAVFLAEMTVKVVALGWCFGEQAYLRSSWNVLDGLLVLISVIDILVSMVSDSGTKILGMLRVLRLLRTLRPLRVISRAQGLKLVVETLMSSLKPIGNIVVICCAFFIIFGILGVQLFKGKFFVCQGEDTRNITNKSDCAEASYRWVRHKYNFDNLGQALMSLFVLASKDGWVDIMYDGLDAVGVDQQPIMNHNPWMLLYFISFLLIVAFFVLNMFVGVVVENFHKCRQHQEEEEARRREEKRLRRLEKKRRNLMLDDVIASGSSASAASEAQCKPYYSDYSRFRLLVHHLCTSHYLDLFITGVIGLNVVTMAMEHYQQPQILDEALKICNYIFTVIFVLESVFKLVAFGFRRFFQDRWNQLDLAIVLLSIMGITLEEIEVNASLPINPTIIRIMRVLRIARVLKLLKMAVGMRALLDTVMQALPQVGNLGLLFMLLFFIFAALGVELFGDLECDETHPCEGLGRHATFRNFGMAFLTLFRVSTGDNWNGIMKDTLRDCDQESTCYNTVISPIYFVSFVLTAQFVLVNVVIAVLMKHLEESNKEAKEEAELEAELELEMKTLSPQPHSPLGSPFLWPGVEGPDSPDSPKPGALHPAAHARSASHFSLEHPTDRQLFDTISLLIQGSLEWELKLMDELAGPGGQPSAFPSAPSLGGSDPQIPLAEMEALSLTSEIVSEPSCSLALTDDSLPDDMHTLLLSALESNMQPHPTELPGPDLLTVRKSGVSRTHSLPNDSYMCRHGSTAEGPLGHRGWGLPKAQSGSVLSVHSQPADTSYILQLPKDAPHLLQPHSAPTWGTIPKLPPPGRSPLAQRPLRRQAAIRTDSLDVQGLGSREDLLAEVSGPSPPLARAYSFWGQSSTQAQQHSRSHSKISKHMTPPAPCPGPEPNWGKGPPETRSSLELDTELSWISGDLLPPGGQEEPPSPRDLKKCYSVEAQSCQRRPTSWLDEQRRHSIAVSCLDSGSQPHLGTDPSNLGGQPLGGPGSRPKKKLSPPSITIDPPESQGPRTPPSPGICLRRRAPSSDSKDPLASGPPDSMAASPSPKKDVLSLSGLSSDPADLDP
# Method: (§2) Human embryonic kidney (HEK) 293 cells were grown in Dulbecco’s modified Eagle’s medium (DMEM) containing 5% fetal bovine serum and penicillin/streptomycin at 37 °C in a 5% CO2 incubator. Cells were transiently transfected with 3 μg plasmid DNA using the calcium-phosphate method. Plasmids of Cav3.1, Cav3.2 or Cav3.3 were separately transfected into three individual plates of HEK-293 cells. After transfection, cells were incubated at 37 °C for 48 h prior to whole-cell voltage-clamp recordings.
# (§3) Patch pipettes with a tip resistance of 2.8~3.5 MΩ were pulled from borosilicate glass capillary tubes (Warner Instruments, Holliston, MA, USA) using a P-97 Flaming-Brown type micropipette puller (Sutter Instrument, Novato, CA, USA). Ionic currents were recorded using an Axon Multiclamp 700B microelectrode amplifier (Molecular Devices, San Jose, CA, USA). The sampling frequency for acquisition was 50 kHz and data were low-pass filtered at 2 kHz. Voltage and current commands and digitisation of membrane voltages and currents were controlled using a Digidata 1440A interfaced with Clampex 10.4 (Molecular Devices, San Jose, CA, USA). Data were analysed using pCLAMP10.4 software (Molecular Devices, San Jose, CA, USA).
# (§4) To measure CaV3 currents, cells were incubated with the following bath solution (in mM): 145 TEA-Cl, 5 CaCl2, 3 CsCl, 1 MgCl2, 5 glucose, and 10 HEPES, adjusted to pH 7.4 with TEA-OH, osmolarity ~300 mOsm. The pipette solution was as follows (in mM): 130 CsCl, 20 HEPES, 10 EGTA, 5 MgCl2, 3 Mg-ATP, and 0.3 Tris-GTP, adjusted to pH 7.3 with CsOH, osmolarity ~310 mOsm. All recordings were performed at room temperature (21–24 °C). For Cav3.1- or Cav3.2-transfected cells, their membrane potentials were initially held at −90 mV for 20 ms and then depolarized to −30 mV for 150 ms. […] The peak values of Cav3 currents were recorded before and after addition of venom fractions or synthetic peptide. […] The inhibition was calculated by dividing the toxin-reduced peak amplitudes by the peak amplitudes before additions of the toxin.
# CaV3.2 = molecular target: T2, CaV3.2 (Homo sapiens, UniProt O95180); assay: Whole-cell voltage-clamp of CaV3.2 expressed in HEK-293 cells; assay type: cell-based
# T2 construct: expressed in transfected cells; host or cells: HEK-293
# Method: as §2, §3, §4
# CaV3.3 = molecular target: T3, CaV3.3 (Homo sapiens, UniProt Q9P0X4); assay: Whole-cell voltage-clamp of CaV3.3 expressed in HEK-293 cells; assay type: cell-based
# T3 construct: expressed in transfected cells; host or cells: HEK-293
# T3 sequence (Q9P0X4 whole entry): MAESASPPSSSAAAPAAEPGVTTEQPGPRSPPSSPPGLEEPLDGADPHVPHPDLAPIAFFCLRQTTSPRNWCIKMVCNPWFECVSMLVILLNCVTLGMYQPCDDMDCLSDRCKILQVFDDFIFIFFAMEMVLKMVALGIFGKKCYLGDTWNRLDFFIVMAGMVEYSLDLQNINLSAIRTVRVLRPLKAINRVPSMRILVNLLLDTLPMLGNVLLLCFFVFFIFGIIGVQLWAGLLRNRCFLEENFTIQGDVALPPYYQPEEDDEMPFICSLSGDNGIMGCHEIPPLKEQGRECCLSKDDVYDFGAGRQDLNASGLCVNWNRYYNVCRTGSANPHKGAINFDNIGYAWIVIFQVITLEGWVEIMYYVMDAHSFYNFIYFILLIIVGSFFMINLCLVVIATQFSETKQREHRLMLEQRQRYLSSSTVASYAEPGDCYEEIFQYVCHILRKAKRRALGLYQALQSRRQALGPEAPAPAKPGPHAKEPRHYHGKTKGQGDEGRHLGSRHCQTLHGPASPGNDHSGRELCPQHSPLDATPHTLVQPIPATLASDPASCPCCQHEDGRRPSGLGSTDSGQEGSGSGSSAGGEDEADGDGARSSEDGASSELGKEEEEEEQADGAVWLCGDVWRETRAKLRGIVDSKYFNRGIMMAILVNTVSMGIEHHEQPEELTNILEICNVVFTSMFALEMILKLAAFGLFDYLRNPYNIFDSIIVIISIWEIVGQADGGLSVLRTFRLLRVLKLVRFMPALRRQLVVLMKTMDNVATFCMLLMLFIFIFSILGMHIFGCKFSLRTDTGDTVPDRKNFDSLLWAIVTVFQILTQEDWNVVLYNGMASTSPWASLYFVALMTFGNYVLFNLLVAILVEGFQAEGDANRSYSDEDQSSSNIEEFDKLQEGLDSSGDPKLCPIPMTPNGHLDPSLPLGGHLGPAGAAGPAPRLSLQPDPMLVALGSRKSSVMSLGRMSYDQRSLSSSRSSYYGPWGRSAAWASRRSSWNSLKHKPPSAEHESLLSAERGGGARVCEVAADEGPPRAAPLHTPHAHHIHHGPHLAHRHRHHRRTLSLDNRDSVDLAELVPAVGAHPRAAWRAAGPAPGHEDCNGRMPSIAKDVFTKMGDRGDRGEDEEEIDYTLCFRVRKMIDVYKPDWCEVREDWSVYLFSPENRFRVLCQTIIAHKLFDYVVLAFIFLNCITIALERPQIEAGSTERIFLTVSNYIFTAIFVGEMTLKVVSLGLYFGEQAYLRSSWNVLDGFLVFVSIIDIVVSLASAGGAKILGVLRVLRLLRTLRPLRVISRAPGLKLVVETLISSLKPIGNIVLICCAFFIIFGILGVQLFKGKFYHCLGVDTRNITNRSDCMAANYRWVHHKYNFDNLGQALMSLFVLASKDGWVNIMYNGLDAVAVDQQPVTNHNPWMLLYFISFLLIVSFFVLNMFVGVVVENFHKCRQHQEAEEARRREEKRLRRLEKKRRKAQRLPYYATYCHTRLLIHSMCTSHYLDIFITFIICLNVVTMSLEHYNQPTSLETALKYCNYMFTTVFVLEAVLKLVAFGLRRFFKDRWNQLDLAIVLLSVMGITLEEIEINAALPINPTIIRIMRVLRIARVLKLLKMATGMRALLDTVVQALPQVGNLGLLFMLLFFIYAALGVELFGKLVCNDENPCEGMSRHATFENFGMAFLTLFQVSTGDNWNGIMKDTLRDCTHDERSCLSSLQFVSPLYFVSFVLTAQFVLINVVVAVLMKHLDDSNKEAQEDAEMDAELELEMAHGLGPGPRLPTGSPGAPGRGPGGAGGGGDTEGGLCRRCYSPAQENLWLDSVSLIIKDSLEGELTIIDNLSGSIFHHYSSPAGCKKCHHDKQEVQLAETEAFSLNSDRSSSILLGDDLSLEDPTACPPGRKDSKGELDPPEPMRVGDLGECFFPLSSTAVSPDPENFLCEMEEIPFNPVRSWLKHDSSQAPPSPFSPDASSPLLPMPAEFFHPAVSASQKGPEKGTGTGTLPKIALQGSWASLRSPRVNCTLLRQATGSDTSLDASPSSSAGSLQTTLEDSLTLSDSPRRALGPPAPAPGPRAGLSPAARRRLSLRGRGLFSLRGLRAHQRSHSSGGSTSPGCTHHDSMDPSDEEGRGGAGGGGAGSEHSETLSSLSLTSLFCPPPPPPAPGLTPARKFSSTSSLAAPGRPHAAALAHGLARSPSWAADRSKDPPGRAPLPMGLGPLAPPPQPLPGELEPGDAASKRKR
# Method: as §2, §3, §4
# [1] = Solubility limit in electrophysiology; assay type: physicochemical; conditions: synthetic ω-Avsp1a; working concentration could not be increased above 25 μM
# [2] = synthetic ω-Avsp1a, 10, 5, 1, and 0.1 μM, Hill equation fit, HEK-293
SMILES,CaV3 subtype specificity (CaV3),clinical effectiveness as anti-epileptic (patients),"inhibition at 4.1 µM (CaV3.1; HEK293, pH 7.4, native ω-Avsp1a, 4.1 μM, HEK-293, whole-cell, -90 to -30 mV, room temperature (21–24 °C), pH 7.4, 5 mM CaCl2, n = 5, read-out: current inhibition)","inhibition at 10 µM (CaV3.1; HEK293, synthetic ω-Avsp1a, 10 μM, HEK-293, whole-cell, -90 to -30 mV, n = 9, read-out: current inhibition)",IC50 (CaV3.1; [2]),IC50 (CaV3.2),"inhibition at 4.1 µM (CaV3.2; HEK293, pH 7.4, native ω-Avsp1a, 4.1 μM, HEK-293, whole-cell, -90 to -30 mV, room temperature (21–24 °C), pH 7.4, 5 mM CaCl2, n = 5, p < 0.001 vs. Cav3.1 and Cav3.3, read-out: current inhibition)","inhibition at 25 µM (CaV3.2; HEK293, synthetic ω-Avsp1a, 25 μM (section 3.6), read-out: current inhibition)","inhibition at 4.1 µM (CaV3.3; HEK293, pH 7.4, native ω-Avsp1a, 4.1 μM, HEK-293, whole-cell, -90 to -20 mV, room temperature (21–24 °C), pH 7.4, 5 mM CaCl2, n = 3, read-out: current inhibition)","inhibition at 10 µM (CaV3.3; HEK293, synthetic ω-Avsp1a, 10 μM, HEK-293, whole-cell, -90 to -20 mV, n = 9, read-out: current inhibition)",IC50 (CaV3.3; [2]),solubility [1]
CCC1(C)CC(=O)NC1=O (centres unmarked) [ethosuximide],not subtype-specific,not effective in all patients,,,,,,,,,,
NS(=O)(=O)Cc1noc2ccccc12 [zonisamide],not subtype-specific,not effective in all patients,,,,,,,,,,
"CC(C)C[C@@H]1NC(=O)[C@H](Cc2ccccc2)NC(=O)[C@H](CCCCN)NC(=O)[C@H](Cc2c[nH]cn2)NC(=O)[C@@H](NC(=O)[C@H](CC(=O)O)NC(=O)CN)CSSC[C@@H]2NC(=O)[C@@H]3CSSC[C@@H](C(=O)N[C@H](C(=O)N[C@@H](Cc4c[nH]c5ccccc45)C(=O)N[C@@H](CC(=O)O)C(=O)N[C@@H](Cc4c[nH]c5ccccc45)C(=O)N[C@H](C(=O)N[C@H](C(N)=O)C(C)C)[C@@H](C)O)C(C)C)NC(=O)[C@H](Cc4c[nH]c5ccccc45)NC(=O)CNC(=O)[C@H](Cc4c[nH]cn4)NC(=O)[C@H](CCCCN)NC(=O)[C@H](CCCNC(=N)N)NC(=O)[C@H](CO)NC(=O)[C@H](CSSC[C@H](NC(=O)[C@H](Cc4c[nH]c5ccccc45)NC(=O)CNC1=O)C(=O)N[C@@H](CCCNC(=N)N)C(=O)NCC(=O)N[C@@H](CCC(=O)O)C(=O)N1CCC[C@H]1C(=O)N[C@@H](CC(=O)O)C(=O)N1CCC[C@H]1C(=O)N3)NC(=O)[C@H](CO)NC(=O)[C@H](CC(C)C)NC(=O)[C@H](Cc1c[nH]cn1)NC(=O)[C@H](CCC(=O)O)NC2=O [ω-Avsp1a, ω-theraphotoxin-Avsp1a] (H-GDCHKFLGWCRGEPDPCCEHLSCSRKHGWCVWDWTV-NH2; disulfide 3-18, 10-23, 17-30)",,,90%,90%,5.06 ± 0.16 µM,> 25 µM,25%,31%,90%,90%,4.32 ± 1.21 µM,limited solubility
